The subject of the data set is rodent lifetime carcinogenesis bioassay, tumor incidence TD50. In words: chronic cancer bioassays in animals – CPDB, compiled studies (AID 1745844).

Activity calls are given as the source filed them. How the calls were made is not given here.

Consider `Nc1ccc(N(CCO)CCO)cc1`, for which, where the note is “rat, strain F344/DuCrj, females, in feed, site: liver, lesion: hepatocellular adenoma, dosed 104 weeks, study length 104 weeks”, the TD50 (in general, the dose at which the toxic effect under study appears in half of the subjects) is 7310 mg/kg/day (inactive). The carcinogen call is “negative (inactive)” (rat, strain F344/DuCrj, males, in feed, site: liver, lesion: hepatocellular adenoma, dosed 104 weeks, study length 104 weeks) and “negative (inactive)” (rat, strain F344/DuCrj, males, in feed, site: liver, lesion: hepatocellular carcinoma, dosed 104 weeks, study length 104 weeks).

`CC(=O)Nc1nc(NC(C)=O)nc(-c2ccc([N+](=O)[O-])o2)n1`: the TD50 was 12.8 mg/kg/day (rat, strain Sprague-Dawley, females, in feed, site: any site (literature study), lesion: several types, types named in the paper, dosed 46 weeks, study length 66 weeks); 29 mg/kg/day (rat, strain Sprague-Dawley, females, in feed, site: mammary gland, lesion: adenocarcinoma, dosed 46 weeks, study length 66 weeks); 14.1 mg/kg/day (rat, strain Sprague-Dawley, females, in feed, site: mammary gland, lesion: several types, types named in the paper, dosed 46 weeks, study length 66 weeks).

For `O=S(=O)(Oc1ccc(Cl)cc1Cl)c1ccccc1`, the TD50 runs as follows: (mouse, strain B6AKF1, females, oral dosing, site: any site (literature study), lesion: several types, types named in the paper, dosed 76 weeks, study length 76 weeks) 867 mg/kg/day (inactive); (mouse, strain B6AKF1, females, oral dosing, site: lung, lesion: several types, types named in the paper, dosed 76 weeks, study length 76 weeks) 1920 mg/kg/day (inactive); (mouse, strain B6AKF1, males, oral dosing, site: any site (literature study), lesion: several types, types named in the paper, dosed 76 weeks, study length 76 weeks) 1680 mg/kg/day (inactive); (mouse, strain B6AKF1, males, oral dosing, site: lung, lesion: adenoma, dosed 76 weeks, study length 76 weeks) 866 mg/kg/day (inactive); (mouse, strain B6C3F1, females, oral dosing, site: any site (literature study), lesion: several types, types named in the paper, dosed 76 weeks, study length 76 weeks) 929 mg/kg/day (inactive); (mouse, strain B6C3F1, females, oral dosing, site: lung, lesion: adenoma, dosed 76 weeks, study length 76 weeks) 1920 mg/kg/day (inactive). Further, the TD50 reads like this: (mouse, strain B6C3F1, males, oral dosing, site: any site (literature study), lesion: several types, types named in the paper, dosed 76 weeks, study length 76 weeks) 218 mg/kg/day (inactive); (mouse, strain B6C3F1, males, oral dosing, site: liver, lesion: hepatoma, dosed 76 weeks, study length 76 weeks) 266 mg/kg/day (inactive); (mouse, strain B6C3F1, males, oral dosing, site: lung, lesion: adenoma, dosed 76 weeks, study length 76 weeks) 924 mg/kg/day (inactive). Besides, the carcinogen call was “negative (inactive)” (mouse, strain B6AKF1, females, oral dosing, site: liver, lesion: hepatoma, dosed 76 weeks, study length 76 weeks); “negative (inactive)” (mouse, strain B6AKF1, males, oral dosing, site: liver, lesion: hepatoma, dosed 76 weeks, study length 76 weeks); “negative (inactive)” (mouse, strain B6C3F1, females, oral dosing, site: liver, lesion: hepatoma, dosed 76 weeks, study length 76 weeks).

On to `O=C(CCl)c1ccccc1`, for which the TD50 runs as follows: (mouse, strain B6C3F1, females, inhaled, site: any site (literature study), lesion: several types, types named in the paper, dosed 103 weeks, study length 105 weeks) 4.31 mg/kg/day (inactive); (mouse, strain B6C3F1, females, inhaled, site: lung, lesion: alveolar/bronchiolar adenoma + alveolar/bronchiolar carcinoma, dosed 103 weeks, study length 105 weeks) 33.4 mg/kg/day; (mouse, strain B6C3F1, males, inhaled, site: any site (literature study), lesion: several types, types named in the paper, dosed 103 weeks, study length 106 weeks) 2.69 mg/kg/day (inactive); (mouse, strain B6C3F1, males, inhaled, site: liver, lesion: hepatocellular adenoma + hepatocellular carcinoma + neoplastic nodule, dosed 103 weeks, study length 106 weeks) 5.24 mg/kg/day; (mouse, strain B6C3F1, males, inhaled, site: lung, lesion: alveolar/bronchiolar adenoma + alveolar/bronchiolar carcinoma, dosed 103 weeks, study length 106 weeks) 10.4 mg/kg/day; (rat, strain Fischer 344, females, inhaled, site: any site (literature study), lesion: several types, types named in the paper, dosed 103 weeks, study length 105 weeks) 0.859 mg/kg/day. Also, the TD50 was found to be 0.224 mg/kg/day (rat, strain Fischer 344, females, inhaled, site: mammary gland, lesion: adenocarcinoma + adenoma + fibroadenoma, dosed 103 weeks, study length 105 weeks); 0.208 mg/kg/day (rat, strain Fischer 344, females, inhaled, site: mammary gland, lesion: adenoma + fibroadenoma, dosed 103 weeks, study length 105 weeks); 0.211 mg/kg/day (rat, strain Fischer 344, females, inhaled, site: mammary gland, lesion: fibroadenoma, dosed 103 weeks, study length 105 weeks). Also, the carcinogen call (rat, strain Fischer 344, males, inhaled, site: any site (literature study), lesion: several types, types named in the paper, dosed 103 weeks, study length 105 weeks) is “negative (inactive)”.

With `Nc1ccc(N=Nc2ccc(N)cc2)cc1`, the carcinogen call (mouse, strain BALB/cLacDp, females, in feed, site: liver, lesion: several types, types named in the paper, dosed 60 weeks, study length 132 weeks) was “negative (inactive)” and the carcinogen call (mouse, strain BALB/cLacDp, males, in feed, site: liver, lesion: several types, types named in the paper, dosed 60 weeks, study length 132 weeks) is “negative (inactive)”. The TD50 by setting is: (mouse, strain BALB/cLacDp, females, in feed, site: lung, lesion: several types, types named in the paper, dosed 60 weeks, study length 132 weeks) 240 mg/kg/day (inactive); (mouse, strain BALB/cLacDp, males, in feed, site: lung, lesion: several types, types named in the paper, dosed 60 weeks, study length 132 weeks) 213 mg/kg/day (inactive).

Regarding `C=C/C=N/O`, the TD50 is 104 mg/kg/day (rat, strain Fischer 344, females, in drinking water, site: liver, lesion: hepatocellular carcinoma, dosed 104 weeks, study length 129 weeks); 41.9 mg/kg/day (rat, strain Fischer 344, females, in drinking water, site: liver, lesion: hyperplastic nodule, dosed 30 weeks, study length 123 weeks); 43.8 mg/kg/day (rat, strain Fischer 344, females, in drinking water, site: liver, lesion: hyperplastic nodule, dosed 104 weeks, study length 129 weeks); 27.1 mg/kg/day (rat, strain Fischer 344, females, in drinking water, site: liver, lesion: several types, types named in the paper, dosed 104 weeks, study length 129 weeks); 50.7 mg/kg/day (rat, strain Fischer 344, males, in drinking water, site: liver, lesion: hepatocellular carcinoma, dosed 30 weeks, study length 123 weeks); 72.6 mg/kg/day (rat, strain Fischer 344, males, in drinking water, site: liver, lesion: hepatocellular carcinoma, dosed 104 weeks, study length 128 weeks). Besides, the TD50 stood at 29.3 mg/kg/day (rat, strain Fischer 344, males, in drinking water, site: liver, lesion: hyperplastic nodule, dosed 30 weeks, study length 123 weeks); 64.9 mg/kg/day (rat, strain Fischer 344, males, in drinking water, site: liver, lesion: hyperplastic nodule, dosed 104 weeks, study length 128 weeks); 16.4 mg/kg/day (rat, strain Fischer 344, males, in drinking water, site: liver, lesion: several types, types named in the paper, dosed 30 weeks, study length 123 weeks); 30.4 mg/kg/day (rat, strain Fischer 344, males, in drinking water, site: liver, lesion: several types, types named in the paper, dosed 104 weeks, study length 128 weeks).

Turning to `C=Cc1cccc(C)c1`, the carcinogen call runs as follows: (mouse, strain B6C3F1, females, inhaled, site: any site (literature study), lesion: several types, types named in the paper, dosed 103 weeks, study length 104 weeks) “negative (inactive)”; (mouse, strain B6C3F1, males, inhaled, site: any site (literature study), lesion: several types, types named in the paper, dosed 103 weeks, study length 104 weeks) “negative (inactive)”; (rat, strain Fischer 344, males, inhaled, site: any site (literature study), lesion: several types, types named in the paper, dosed 103 weeks, study length 104 weeks) “negative (inactive)”. The TD50 reads like this: (mouse, strain B6C3F1, females, inhaled, site: lung, lesion: alveolar/bronchiolar adenoma + alveolar/bronchiolar carcinoma, dosed 103 weeks, study length 104 weeks) 750 mg/kg/day; (rat, strain Fischer 344, females, inhaled, site: any site (literature study), lesion: several types, types named in the paper, dosed 103 weeks, study length 104 weeks) 312 mg/kg/day (inactive).

As to `C=C(C)CCl`, the TD50 is, setting by setting: (mouse, strain B6C3F1, females, by gavage, site: any site (literature study), lesion: several types, types named in the paper, dosed 103 weeks, study length 105 weeks) 149 mg/kg/day; (mouse, strain B6C3F1, females, by gavage, site: forestomach, lesion: squamous-cell carcinoma + squamous-cell papilloma, dosed 103 weeks, study length 105 weeks) 82.3 mg/kg/day; (mouse, strain B6C3F1, females, by gavage, site: forestomach, lesion: squamous-cell papilloma, dosed 103 weeks, study length 105 weeks) 87.7 mg/kg/day; (mouse, strain B6C3F1, females, by gavage, site: lung, lesion: alveolar/bronchiolar adenoma + alveolar/bronchiolar carcinoma, dosed 103 weeks, study length 105 weeks) 5180 mg/kg/day; (mouse, strain B6C3F1, males, by gavage, site: any site (literature study), lesion: several types, types named in the paper, dosed 103 weeks, study length 105 weeks) 402 mg/kg/day; (mouse, strain B6C3F1, males, by gavage, site: forestomach, lesion: squamous-cell carcinoma + squamous-cell papilloma, dosed 103 weeks, study length 105 weeks) 73.5 mg/kg/day. Besides, the TD50 is 432 mg/kg/day (mouse, strain B6C3F1, males, by gavage, site: forestomach, lesion: squamous-cell carcinoma, dosed 103 weeks, study length 105 weeks); 96.2 mg/kg/day (mouse, strain B6C3F1, males, by gavage, site: forestomach, lesion: squamous-cell papilloma, dosed 103 weeks, study length 105 weeks); 665 mg/kg/day (mouse, strain BDF1, females, inhaled, site: Harderian gland, lesion: adenoma, dosed 104 weeks, study length 104 weeks); 1850 mg/kg/day (mouse, strain BDF1, females, inhaled, site: forestomach, lesion: squamous-cell papilloma, dosed 104 weeks, study length 104 weeks); 60000 mg/kg/day (mouse, strain BDF1, females, inhaled, site: liver, lesion: hepatocellular carcinoma, dosed 104 weeks, study length 104 weeks); 6750 mg/kg/day (mouse, strain BDF1, females, inhaled, site: lung, lesion: alveolar/bronchiolar carcinoma, dosed 104 weeks, study length 104 weeks). Also, the TD50 is 11500 mg/kg/day (mouse, strain BDF1, males, inhaled, site: forestomach, lesion: squamous-cell carcinoma, dosed 104 weeks, study length 104 weeks); 2040 mg/kg/day (mouse, strain BDF1, males, inhaled, site: forestomach, lesion: squamous-cell papilloma, dosed 104 weeks, study length 104 weeks); 1020 mg/kg/day (mouse, strain BDF1, males, inhaled, site: lung, lesion: alveolar/bronchiolar adenoma, dosed 104 weeks, study length 104 weeks); 1570 mg/kg/day (mouse, strain BDF1, males, inhaled, site: lung, lesion: alveolar/bronchiolar carcinoma, dosed 104 weeks, study length 104 weeks); 323 mg/kg/day (rat, strain Fischer 344, females, by gavage, site: any site (literature study), lesion: several types, types named in the paper, dosed 103 weeks, study length 105 weeks); 320 mg/kg/day (rat, strain Fischer 344, females, by gavage, site: forestomach, lesion: papilloma, NOS, dosed 103 weeks, study length 105 weeks). For the same compound, the TD50 (rat, strain Fischer 344, females, by gavage, site: subcutaneous tissue, lesion: fibroma, dosed 103 weeks, study length 105 weeks) was 524 mg/kg/day; the TD50 (rat, strain Fischer 344, males, by gavage, site: any site (literature study), lesion: several types, types named in the paper, dosed 103 weeks, study length 105 weeks) was determined as 109 mg/kg/day; the TD50 (rat, strain Fischer 344, males, by gavage, site: forestomach, lesion: papilloma, NOS, dosed 103 weeks, study length 105 weeks) is 68.7 mg/kg/day; the TD50 (rat, strain Fischer 344, males, by gavage, site: liver, lesion: hepatocellular adenoma + hepatocellular carcinoma + neoplastic nodule, dosed 103 weeks, study length 105 weeks) was 714 mg/kg/day; the TD50 (rat, strain Fischer 344, males, by gavage, site: testis, lesion: interstitial-cell tumor, dosed 103 weeks, study length 105 weeks) is 54 mg/kg/day.

The values above are taken from PubChem BioAssay AID1745844 (Carcinogenic Potency Database (CPDB), 2022).
